Experimental findings from patent US11278548B2, “Methods and compositions for reducing side effects in chemotherapeutic treatments” (Galderma Research and Development, priority 2017, dated 2022) are described below.

Entries after “also recorded” stand apart in the source; their conditions may differ.

The test system of the data set is acneiform rash.

Regarding `Brc1c(NC2=NCCN2)ccc2nccnc12` [brimonidine, (5-bromo-quinoxalin-6-yl)-(4,5-dihydro-1H-imidazol-2-yl)-amine], the “treated patients with a decrease in rash severity” value (18 EGFRI-treated patients, CTCAE v4.0 grading, followed for 12 to 24 weeks, n=17, most also on antibiotics or corticosteroids) came to 94%. Besides, the “adverse events to brimonidine” value (18 EGFRI-treated patients, followed for 12 to 24 weeks) is reported as “not reported; also recorded: no adverse events”. The “acneiform rash outcome (in words)” value (EGFRI-treated patients, 83% also receiving systemic antibiotics, topical antibiotics or corticosteroids) is recorded as “improvement in acneiform rash in all patients”. Also, the “dose modification of anticancer therapies” value (majority of treated patients) is given as “did not require dose modification”.
